From patent US20190142971A1, “FORMULATION AND DELIVERY OF MODIFIED NUCLEOSIDE, NUCLEOTIDE, AND NUCLEIC ACID COMPOSITIONS” (ModernaTX, Inc., priority 2013, published 2019)

Key:
HeLa cells = assay: Example 75: chemical modifications of luciferase mRNA, RLU (Table 114); format: cell-based; details: 83 ng luciferase mRNA, 18 to 22 hours
Protocol: The day before transfection, 20,000 HeLa cells (ATCC no. CCL-2; Manassas, Va.) were harvested by treatment with Trypsin-EDTA solution (Life Technologies, Grand Island, N.Y.) and seeded in a total volume of 100 ul EMEM medium (supplemented with 10% FCS and 1× Glutamax) per well in a 96-well cell culture plate (Corning, Manassas, Va.). The cells were grown at 37° C. in 5% CO2 atmosphere overnight. […] Lipofectamine 2000 (LifeTechnologies, Grand Island, N.Y.) was used as transfection reagent and 0.2 ul were diluted in 10 ul final volume of OPTI-MEM. After 5 minutes of incubation at room temperature, both solutions were combined and incubated an additional 15 minute at room temperature. Then the 20 ul combined solution was added to the 100 ul cell culture medium containing the HeLa cells and incubated at room temperature.
After 18 to 22 hours of incubation cells expressing luciferase were lysed with 100 ul of Passive Lysis Buffer (Promega, Madison, Wis.) according to manufacturer instructions. Aliquots of the lysates were transferred to white opaque polystyrene 96-well plates (Corning, Manassas, Va.) and combined with 100 ul complete luciferase assay solution (Promega, Madison, Wis.). The lysate volumes were adjusted or diluted until no more than 2 mio relative light units (RLU) per well were detected for the strongest signal producing samples and the RLUs for each chemistry tested are shown in Table 114. The plate reader was a BioTek Synergy H1 (BioTek, Winooski, Vt.). The background signal of the plates without reagent was about 200 relative light units per well.

HEK293A = assay: Example 44: signal sequence exchange, secreted G-CSF ELISA (Table 70); format: cell-based; details: 293A, 250 ng mRNA, Lipofectamine 2000, supernatant 24 hrs
Source text: (§1) These variants included the G-CSF constructs encoding either the wild-type N terminal secretory signal peptide sequence ([…]; SEQ ID NO: 19), no secretory signal peptide sequence, or secretory signal peptide sequences taken from other mRNAs. These included sequences where the wild type GCSF signal peptide sequence was replaced with the signal peptide sequence of either: human α-1-anti trypsin (AAT) ([…]; SEQ ID NO: 20), human Factor IX (FIX) ([…]; SEQ ID NO: 21), human Prolactin (Prolac) ([…]; SEQ ID NO: 22), or human Albumin (Alb) ([…]; SEQ ID NO: 23).
(§2) 250 ng of modified mRNA encoding each G-CSF variant was transfected into HEK293A (293A in the table), mouse myoblast (MM in the table) (C2C12, CRL-1772, ATCC) and rat myoblast (RM in the table) (L6 line, CRL-1458, ATCC) cell lines in a 24 well plate using 1 ul of Lipofectamine 2000 (Life Technologies), each well containing 300,000 cells. […] The data shown in Table 70 reveal that cells transfected with G-CSF mmRNA encoding the Albumin signal peptide secrete at least 12 fold more G-CSF protein than its wild type counterpart.

mouse myoblast (C2C12) = assay: as above; format: cell-based; details: MM (mouse myoblast C2C12), 250 ng mRNA, supernatant 24 hrs
Source text: as §1, §2

rat myoblast (L6 line) = assay: as above; format: cell-based; details: RM (rat myoblast L6), 250 ng mRNA, supernatant 24 hrs
Source text: as §1, §2

Balb-C mice = assay: Example 88: chemically modified luciferase mRNA in PBS IM, SC, flux (Tables 136, 137); format: in vivo; details: luciferase mRNA in PBS (pH 7.4), 2.5 mg/kg
Protocol: Twenty minutes prior to imaging, mice were injected intraperitoneally with a D-luciferin solution at 150 mg/kg. Animals were then anesthetized and images were acquired with an IVIS Lumina II imaging system (Perkin Elmer). Bioluminescence was measured as total flux (photons/second) of the entire mouse. The mice were imaged at 2 hours, 8 hours and 24 hours. […] The background signal was 3.84E+05 (p/s).

human PBMC = assay: Example 45: PBMC transfection, IFN-alpha ELISA (Table 72); format: cell-based
Protocol: The plates were then incubated at 37 C.
Each condition was done in duplicate.
Shown in Tables 71 and 72 are the average from 2 separate PBMC donors of the G-CSF and IFN-alpha production over time as measured by specific ELISA.

mice = assay: Example 41: IV lipoplexed G-CSF mRNA in mice, neutrophil count (Table 66); format: in vivo; details: IV 10% lipoplex, 50 ug at days 0, 2, 4; day 5
Protocol: Neutrophils were measured at days 1, 5 and 8. Controls included non-specific mammalian RNA or the formulation buffer alone (F.Buffer). The mice were bled at days 1, 5 and 8 to determine the effect of mRNA-encoded human G-CSF to increase neutrophil count. The dosing regimen is shown in Table 66 as are the resulting neutrophil counts (thousands/uL; K/uL).

[1] = Example 61: storage stability of G-CSF mRNA, gel electrophoresis (Bio-Rad EXPERION); format: physicochemical
Protocol: Stability experiments were conducted to obtain a better understanding of storage conditions to retain the integrity of modified RNA. […] After the mRNA had been stored for 0 hours, 2 hours, 6 hours, 24 hours, 48 hours, 5 days and 14 days, the mRNA was analyzed by gel electrophoresis using a Bio-Rad EXPERION™ system. The modified, unmodified and lipoplexed G-CSF mRNA was also stored in RNASTABLE® (Biomatrica, Inc. San Diego, Calif.) at 40° C. or water at −80° C. or 40° C. for 35 days before being analyzed by gel electrophoresis.
mRNA samples stored at 4° C., 25° C. and 37° C. were stored in 1×TE buffer or the formulation buffer (150 mM sodium chloride, 2 mM calcium chloride, 2 mM phosphate, 0.5 mM EDTA at a pH of 6.5). The mRNA stored at 4° C. was stable to at least 60 days in both the TE and formulation buffer. At 25° C. the mRNA in formulation buffer was stable out to 14 days and the TE buffer was stable out to at least 6 days. Storage of mRNA in the formulation buffer at 37° C. was stable to 6 days compared to the TE buffer which was stable only until 4 days.

BALB/C mice = assay: Example 59: G-CSF mRNA IM in mice, serum human G-CSF and mouse IFN-alpha ELISA (Table 93); format: in vivo
[2] = I.M., 200 ug/mouse (R848 75 ug/mouse), 50 ul, 8 hours after dosing

## CC(=O)Nc1ccn([C@@H]2O[C@H](CO)[C@@H](O)[C@H]2O)c(=O)n1 [Sample N4-Acetylcytidine, N4-Acetylcytidine]
HeLa cells
  RLU: 1073251 RLU

## Albumin
HEK293A
  secreted G-CSF protein: 122050 pg/mL
Mouse myoblast (C2C12)
  secreted G-CSF protein: 81050 pg/mL
Rat myoblast (L6 line)
  secreted G-CSF protein: 173300 pg/mL

## Prolactin
HEK293A
  secreted G-CSF protein: 7875 pg/mL
Mouse myoblast (C2C12)
  secreted G-CSF protein: 1525 pg/mL
Rat myoblast (L6 line)
  secreted G-CSF protein: 9800 pg/mL

## α-1-anti trypsin
HEK293A
  secreted G-CSF protein: 9950 pg/mL
Mouse myoblast (C2C12)
  secreted G-CSF protein: 5000 pg/mL
Rat myoblast (L6 line)
  secreted G-CSF protein: 8475 pg/mL

## COc1cn([C@@H]2O[C@H](CO)[C@@H](O)[C@H]2O)c(=O)[nH]c1=O [Sample 5-methoxyuridine, 5-methoxyuridine]
HeLa cells
  RLU: 219657 RLU

## CC(=O)Nc1ccn([C@@H]2O[C@H](CO)[C@@H](O)[C@H]2O)c(=O)n1 [Formulation N4-acetylcytidine, N4-acetylcytidine]
Balb-C mice; 2 hours
  Flux, Intramuscular Administration: 1.32E+07 p/s
  Flux, Subcutaneous Administration: 3.07E+07 p/s
Balb-C mice; 8 hours
  Flux, Intramuscular Administration: 2.15E+07 p/s
  Flux, Subcutaneous Administration: 1.23E+07 p/s
Balb-C mice; 24 hours
  Flux, Intramuscular Administration: 4.01E+07 p/s
  Flux, Subcutaneous Administration: 1.28E+07 p/s

## O=c1[nH]c(=O)n([C@@H]2O[C@H](CO)[C@@H](O)[C@H]2O)cc1Br [Sample 5-Bromouridine, 5-Bromouridine]
HeLa cells
  RLU: 6787 RLU

## O=c1[nH]cc([C@@H]2O[C@H](CO)[C@@H](O)[C@H]2O)c(=O)[nH]1 [Pseudouridine]
HeLa cells
  RLU: 140234 RLU

## COc1cn([C@@H]2O[C@H](CO)[C@@H](O)[C@H]2O)c(=O)[nH]c1=O [Formulation 5-methoxyuridine, 5-methoxyuridine]
Balb-C mice; 2 hours
  Flux, Intramuscular Administration: 4.93E+06 p/s
  Flux, Subcutaneous Administration: 7.10E+06 p/s
Balb-C mice; 8 hours
  Flux, Intramuscular Administration: 1.80E+07 p/s
  Flux, Subcutaneous Administration: 9.38E+06 p/s
Balb-C mice; 24 hours
  Flux, Intramuscular Administration: 4.53E+07 p/s
  Flux, Subcutaneous Administration: 1.32E+07 p/s

## 5-methylcytosine and pseudouridine
HeLa cells
  RLU: 1601234 RLU

## Cn1cc([C@@H]2O[C@H](CO)[C@@H](O)[C@H]2O)c(=O)[nH]c1=O [Sample N1-methylpseudouridine, N1-methylpseudouridine]
HeLa cells
  RLU: 3068261 RLU

B1: unmodified G-CSF mRNA: G-CSF mRNA (SEQ ID NO: 4) with natural NTPs, Cap1 (nucleic acid)
chain: GGGAAAUAAGAGAGAAAAGAAGAGUAAGAAGAAAUAUAAGAGCCACCAUGGCCGGUCCCGCGACCCAAAGCCCCAUGAAACUUAUGGCCCUGCAGUUGCUGCUUUGGCACUCGGCCCUCUGGACAGUCCAAGAAGCGACUCCUCUCGGACCUGCCUCAUCGUUGCCGCAGUCAUUCCUUUUGAAGUGUCUGGAGCAGGUGCGAAAGAUUCAGGGCGAUGGAGCCGCACUCCAAGAGAAGCUCUGCGCGACAUACAAACUUUGCCAUCCCGAGGAGCUCGUACUGCUCGGGCACAGCUUGGGGAUUCCCUGGGCUCCUCUCUCGUCCUGUCCGUCGCAGGCUUUGCAGUUGGCAGGGUGCCUUUCCCAGCUCCACUCCGGUUUGUUCUUGUAUCAGGGACUGCUGCAAGCCCUUGAGGGAAUCUCGCCAGAAUUGGGCCCGACGCUGGACACGUUGCAGCUCGACGUGGCGGAUUUCGCAACAACCAUCUGGCAGCAGAUGGAGGAACUGGGGAUGGCACCCGCGCUGCAGCCCACGCAGGGGGCAAUGCCGGCCUUUGCGUCCGCGUUUCAGCGCAGGGCGGGUGGAGUCCUCGUAGCGAGCCACCUUCAAUCAUUUUUGGAAGUCUCGUACCGGGUGCUGAGACAUCUUGCGCAGCCGUGAAGCGCUGCCUUCUGCGGGGCUUGCCUUCUGGCCAUGCCCUUCUUCUCUCCCUUGCACCUGUACCUCUUGGUCUUUGAAUAAAGCCUGAGUAGGAAG
modifications: Cap1
Human PBMC
  IFN-alpha / cytokine production: substantial IFN-alpha production
BJ fibroblasts
  time to cytokine response (IFN-beta, IL-6): after one day
mice
  increase in neutrophil count above control: no pharmacologic effect
[1]
  freeze/thaw cycles tolerated: 12 cycles
[1]; stored at 25° C.
  stable out to: 48 h
[1]; stored at 37° C.
  stable out to: 6 h
[1]; stored at 50° C.
  stable out to: 2 h
BALB/C mice; G-CSF / IFN-alpha
  Protein: Cytokine Ratio (PC Ratio): 9
BALB/C mice; [2]
  G-CSF protein (human, serum): 605.6 pg/mL
  IFN-alpha expression (mouse, serum): 67.01 pg/mL
BALB/C mice; I.M., 200 ug/mouse (R848 75 ug/mouse), 8 hours after dosing
  PC Ratio (Protein: Cytokine Ratio): 9
BALB/C mice; IM, 8 hours
  human G-CSF expression in mouse serum: resulted in human G-CSF expression in mouse serum
  mouse IFN-alpha in the serum (cytokine response): robust cytokine response
